According to ChEMBL document CHEMBL1201862, “PubChem BioAssay data set” (2004):
Activity calls are given as the source filed them.

Legend:
[1] = target: T1, Neuropeptide Y receptor type 1 (Homo sapiens, UniProt P25929); assay: Fluorescence-based counterscreen for agonists of NPY-Y2: cell-based high-throughput dose response assay for agonists of NPY-Y1.; format: functional
T1 sequence (P25929 whole entry): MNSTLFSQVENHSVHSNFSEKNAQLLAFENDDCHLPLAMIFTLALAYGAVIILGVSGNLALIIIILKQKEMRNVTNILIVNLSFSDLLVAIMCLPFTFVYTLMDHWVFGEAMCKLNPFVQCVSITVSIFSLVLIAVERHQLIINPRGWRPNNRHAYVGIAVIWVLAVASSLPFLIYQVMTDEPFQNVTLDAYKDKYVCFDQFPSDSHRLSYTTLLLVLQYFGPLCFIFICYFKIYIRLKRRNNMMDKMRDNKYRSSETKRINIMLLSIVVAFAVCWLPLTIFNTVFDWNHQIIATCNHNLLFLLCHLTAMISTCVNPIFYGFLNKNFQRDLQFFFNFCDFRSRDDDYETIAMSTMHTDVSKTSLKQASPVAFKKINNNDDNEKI

[2] = target: T2, Replicative DNA helicase DnaB (Mycobacterium tuberculosis, UniProt P9WMR3); assay: DnaB intein splicing inhibitors, dose response, biochemical, cell-free fluorescence (AID 449749); format: functional
T2 sequence (P9WMR3 whole entry): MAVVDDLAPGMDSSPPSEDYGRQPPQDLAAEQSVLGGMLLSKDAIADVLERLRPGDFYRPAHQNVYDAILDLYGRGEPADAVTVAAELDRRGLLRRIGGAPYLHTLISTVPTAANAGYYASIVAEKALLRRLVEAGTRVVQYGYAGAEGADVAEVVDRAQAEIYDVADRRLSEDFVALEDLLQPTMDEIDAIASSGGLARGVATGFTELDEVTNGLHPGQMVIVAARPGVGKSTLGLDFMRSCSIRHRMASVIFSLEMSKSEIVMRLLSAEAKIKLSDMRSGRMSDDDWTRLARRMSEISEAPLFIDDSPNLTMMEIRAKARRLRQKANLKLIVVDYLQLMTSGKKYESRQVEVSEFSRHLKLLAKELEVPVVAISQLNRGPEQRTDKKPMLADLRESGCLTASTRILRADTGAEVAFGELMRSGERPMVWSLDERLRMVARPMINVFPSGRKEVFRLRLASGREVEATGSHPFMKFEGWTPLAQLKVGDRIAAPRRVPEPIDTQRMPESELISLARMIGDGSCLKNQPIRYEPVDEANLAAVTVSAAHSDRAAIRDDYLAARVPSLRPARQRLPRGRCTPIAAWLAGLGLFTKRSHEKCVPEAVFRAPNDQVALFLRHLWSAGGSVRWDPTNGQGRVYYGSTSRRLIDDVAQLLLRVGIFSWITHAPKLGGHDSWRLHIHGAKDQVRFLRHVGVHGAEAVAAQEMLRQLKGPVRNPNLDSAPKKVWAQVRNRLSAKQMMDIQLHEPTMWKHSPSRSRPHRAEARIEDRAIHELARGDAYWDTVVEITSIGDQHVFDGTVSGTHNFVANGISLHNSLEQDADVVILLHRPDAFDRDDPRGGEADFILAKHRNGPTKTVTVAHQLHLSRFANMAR

Protein RecA = target: T3, Protein RecA (Mycobacterium tuberculosis, UniProt P9WHJ3); assay: Fluorescence Cell-Free Homogeneous Dose Retest to Identify Inhibitors of RecA-Intein Splicing Activity. [Related pubchem assays (depositor defined):AID2097, AID2223, AID489010, AID492950]; format: functional
T3 sequence (P9WHJ3 whole entry): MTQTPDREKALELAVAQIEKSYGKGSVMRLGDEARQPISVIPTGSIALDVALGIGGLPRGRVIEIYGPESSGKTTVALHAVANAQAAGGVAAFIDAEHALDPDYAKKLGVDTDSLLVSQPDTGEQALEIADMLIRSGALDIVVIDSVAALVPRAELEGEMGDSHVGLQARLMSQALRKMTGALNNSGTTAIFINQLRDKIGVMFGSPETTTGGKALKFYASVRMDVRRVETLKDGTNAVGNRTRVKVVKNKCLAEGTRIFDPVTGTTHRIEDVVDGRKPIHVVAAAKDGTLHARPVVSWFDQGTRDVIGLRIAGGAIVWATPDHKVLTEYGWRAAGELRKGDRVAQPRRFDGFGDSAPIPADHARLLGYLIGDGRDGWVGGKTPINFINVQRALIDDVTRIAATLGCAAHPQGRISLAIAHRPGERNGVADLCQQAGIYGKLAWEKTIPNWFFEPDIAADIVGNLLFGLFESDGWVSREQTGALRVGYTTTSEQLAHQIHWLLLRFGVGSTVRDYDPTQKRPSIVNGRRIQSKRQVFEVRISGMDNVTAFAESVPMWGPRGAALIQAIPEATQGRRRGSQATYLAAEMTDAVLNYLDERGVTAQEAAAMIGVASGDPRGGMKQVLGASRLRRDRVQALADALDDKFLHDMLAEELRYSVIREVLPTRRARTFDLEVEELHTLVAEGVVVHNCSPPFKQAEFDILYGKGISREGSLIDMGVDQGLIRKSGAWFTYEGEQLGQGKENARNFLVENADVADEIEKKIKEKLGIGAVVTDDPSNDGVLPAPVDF

[3] = target: T4, Neuropeptide Y receptor type 2 (Homo sapiens, UniProt P49146); assay: Fluorescence-based cell-based high-throughput dose response assay for agonists of NPY-Y2. [Related pubchem assays: 1703 (Screening assay (CNGC inhibitors).), 1359 (Screening assay (NPY-Y2 potentiators or agonists).), 1304 (Screening assay (NPY-Y1 potentiators or agonists).), 1710 (Screening assay (NPY-Y2 agonists).), 1791 (Summary AID.)]; format: functional
T4 sequence (P49146 whole entry): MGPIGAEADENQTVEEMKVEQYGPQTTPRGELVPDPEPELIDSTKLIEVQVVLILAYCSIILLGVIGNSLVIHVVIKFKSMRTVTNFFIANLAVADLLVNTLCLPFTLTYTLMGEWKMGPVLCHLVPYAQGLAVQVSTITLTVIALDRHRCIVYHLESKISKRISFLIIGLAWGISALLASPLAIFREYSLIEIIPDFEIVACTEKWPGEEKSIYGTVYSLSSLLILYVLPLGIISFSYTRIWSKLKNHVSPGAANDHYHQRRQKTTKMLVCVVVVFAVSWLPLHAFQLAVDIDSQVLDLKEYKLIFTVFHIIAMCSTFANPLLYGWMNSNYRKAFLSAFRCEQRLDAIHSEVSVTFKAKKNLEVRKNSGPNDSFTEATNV

Streptokinase A = target: T5, Streptokinase A (Streptococcus pyogenes serotype M1, UniProt P10520); assay: viability-normalized secreted streptokinase activity reduction – plasminogen activation absorbance, OD405, dose response (AID 1914); format: functional, Streptococcus pyogenes M1 GAS;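 also: secreted streptokinase activity via plasminogen activation per viability signal from cell pellet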
T5 sequence (P10520 whole entry): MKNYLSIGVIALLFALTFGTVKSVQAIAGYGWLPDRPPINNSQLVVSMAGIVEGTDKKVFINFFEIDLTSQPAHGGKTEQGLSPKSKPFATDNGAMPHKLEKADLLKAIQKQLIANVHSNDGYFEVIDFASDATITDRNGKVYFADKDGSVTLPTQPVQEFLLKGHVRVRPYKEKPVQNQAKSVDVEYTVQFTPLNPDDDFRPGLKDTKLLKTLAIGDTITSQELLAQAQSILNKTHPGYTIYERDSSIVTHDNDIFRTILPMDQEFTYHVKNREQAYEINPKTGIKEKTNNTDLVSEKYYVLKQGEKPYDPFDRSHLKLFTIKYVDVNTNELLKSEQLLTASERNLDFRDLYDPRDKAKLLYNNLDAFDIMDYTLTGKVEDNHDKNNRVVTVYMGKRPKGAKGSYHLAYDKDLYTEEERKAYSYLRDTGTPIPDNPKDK

[4] = target: T4, Neuropeptide Y receptor type 2; assay: Fluorescence-based cell-based high-throughput dose response assay for potentiators or agonists of NPY-Y2. [Related pubchem assays: 1539 (Screening assay (NPY-Y2 potentiators or agonists).), 1703 (Screening assay (CNGC inhibitors).), 1359 (Screening assay (NPY-Y2 potentiators or agonists).), 1304 (Screening assay (NPY-Y1 potentiators or agonists).) …; format: functional
[5] = target: T1, Neuropeptide Y receptor type 1; assay: Fluorescence-based counterscreen for potentiators or agonists of NPY-Y2: cell-based high-throughput dose response assay for potentiators or agonists of NPY-Y1.; format: functional
[6] = target: Photoreceptor-specific nuclear receptor (Homo sapiens, UniProt Q9Y5X4); format: functional, cell-based;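 also: CHO-S cells with Gal4-NCOR and VP16-NR2E3 two-hybrid luciferase reporter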
[7] = Trypanosoma cruzi growth suppression in host cells – NIH3T3 host cells, beta-gal luminescence, confirmation (AID 2044); format: functional, cell-based;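 also: intracellular parasites grown in NIH/3T3 mouse fibroblasts as host cells; luminescent beta-galactosidase reporter signal from transgenic T. cruzi replicating inside host cells; inhibitors lower the luminescence signal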
Bcl-2-like protein 1 = Bcl-2-like protein 1 (Homo sapiens, UniProt Q07817); assay: blockers of BCLXL peptide binding – biochemical, fluorescence polarization, 1536-well, selectivity assay for MCL1 inhibitor project, dose response (AID 2218)
[8] = target: Induced myeloid leukemia cell differentiation protein Mcl-1 (Homo sapiens, UniProt Q07820); assay: blockers of MCL1 binding to BIM peptide – biochemical, fluorescence polarization, BIM-BH3 peptide, 1536-well, dose response (AID 2217)
[9] = target: T6, Carboxy-terminal domain RNA polymerase II polypeptide A small phosphatase 1 (Homo sapiens, UniProt Q9GZU7); assay: CTDSP1 inhibitors, concentration-response, biochemical, absorbance readout, ultra-high-throughput screen actives (AID 540297); format: functional
T6 sequence (Q9GZU7 whole entry): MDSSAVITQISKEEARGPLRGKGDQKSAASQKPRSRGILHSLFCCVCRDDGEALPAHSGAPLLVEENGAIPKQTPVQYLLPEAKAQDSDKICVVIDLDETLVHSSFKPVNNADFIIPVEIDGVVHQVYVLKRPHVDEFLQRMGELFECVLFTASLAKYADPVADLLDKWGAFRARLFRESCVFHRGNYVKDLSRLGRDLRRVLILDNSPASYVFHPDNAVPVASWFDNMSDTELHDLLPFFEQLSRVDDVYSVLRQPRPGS

[10] = NIH-3T3 fibroblast cytotoxicity, dose response, cytotoxicity control, cell-based, fluorescence, Alamar Blue, secondary assay (AID 2327); format: functional;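 also: NIH-3T3 mouse fibroblasts cultured with fluconazole at 8 µg/mL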
[11] = NIH3T3 cell viability loss – ATP luminescence, mouse fibroblasts, counter-screen, dose response (AID 2010); format: functional, cell-based;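 also: cells exposed to compound for about 90 hours before reading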
[12] = target: T7, Microphthalmia-associated transcription factor (Homo sapiens, UniProt O75030); assay: reducers of TRPM1 reporter luminescence, concentration series – cell-based, SK-MEL-5, cherry-picked, set 3, MITF inhibitor project, dose response (AID 493073); format: functional;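 also: SK-MEL-5 melanoma cells with luciferase driven by the MITF target TRPM1 promoter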
T7 sequence (O75030 whole entry): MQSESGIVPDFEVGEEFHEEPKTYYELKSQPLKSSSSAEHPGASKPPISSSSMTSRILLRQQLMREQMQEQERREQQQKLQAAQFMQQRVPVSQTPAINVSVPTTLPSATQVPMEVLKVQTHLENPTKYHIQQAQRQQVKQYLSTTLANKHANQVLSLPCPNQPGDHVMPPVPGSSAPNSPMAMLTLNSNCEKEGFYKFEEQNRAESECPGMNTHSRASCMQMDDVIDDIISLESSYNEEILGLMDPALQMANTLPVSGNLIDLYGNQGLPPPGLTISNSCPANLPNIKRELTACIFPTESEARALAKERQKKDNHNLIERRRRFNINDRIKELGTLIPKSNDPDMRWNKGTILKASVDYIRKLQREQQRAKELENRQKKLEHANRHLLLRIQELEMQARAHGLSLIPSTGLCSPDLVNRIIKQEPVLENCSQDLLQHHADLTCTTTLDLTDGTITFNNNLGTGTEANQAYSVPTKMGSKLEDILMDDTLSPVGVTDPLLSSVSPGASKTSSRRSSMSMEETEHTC

[13] = target: 5-hydroxytryptamine receptor 1E (Homo sapiens, UniProt P28566); assay: Counterscreen assay for S1P3 antagonists: Dose response cell-based high throughput screening assay to identify antagonists of the 5-Hydroxytryptamine Receptor Subtype 1E (5HT1E). [Related pubchem assays: 1429, 485 ]; format: functional
[14] = target: Sphingosine 1-phosphate receptor 3 (Homo sapiens, UniProt Q99500); assay: Dose response cell-based high throughput screening assay for antagonists of the Sphingosine 1-Phosphate Receptor 3 (S1P3). [Related pubchem assays: 1429, 485 ]; format: functional
Bcl-2-like protein 10 = Bcl-2-like protein 10 (Homo sapiens, UniProt Q9HD36); assay: Bcl-B/TR3 peptide binding disruption – biochemical, fluorescence polarization, FITC-TR3 peptide, selectivity assay for Bfl-1 inhibitor project, primary screen (AID 748);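 also: fluorescence polarization from a fluorescein-labelled TR3 peptide binding purified Bcl-B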
Estrogen receptor beta = Estrogen receptor beta (Homo sapiens, UniProt Q92731); assay: blockers of SRC-3 recruitment to ERβ – biochemical, ELISA, streptavidin-HRP readout, orthogonal assay, confirmation (AID 1060)
[15] = target: Potassium voltage-gated channel subfamily KQT member 2 (Rattus norvegicus, UniProt O88943, W236L); assay: potentiation of rat KCNQ2 current – cell-based, automated electrophysiology, mechanism study for KCNQ2 potentiator project, dose response (AID 2603); format: functional
Mucolipin-3 = Mucolipin-3 (Homo sapiens, UniProt Q8TDD5); assay: Dose response cell-based high-throughput screening assay for agonists of the transient receptor potential channel ML3 (TRPML3). [Related pubchem assays: 1526, 1424, 1448 ]; format: functional
Ion channel NompC = Ion channel NompC (Danio rerio, UniProt Q7T1G6); assay: Fluorescence counterscreen assay for TRPML3 agonists: dose response cell-based high-throughput screening assay to identify agonists of the transient receptor potential channel N1 (TRPN1). [Related pubchem assays: 1526, 1424, 1448 ]; format: functional
Sequence of Ion channel NompC (Q7T1G6 whole entry): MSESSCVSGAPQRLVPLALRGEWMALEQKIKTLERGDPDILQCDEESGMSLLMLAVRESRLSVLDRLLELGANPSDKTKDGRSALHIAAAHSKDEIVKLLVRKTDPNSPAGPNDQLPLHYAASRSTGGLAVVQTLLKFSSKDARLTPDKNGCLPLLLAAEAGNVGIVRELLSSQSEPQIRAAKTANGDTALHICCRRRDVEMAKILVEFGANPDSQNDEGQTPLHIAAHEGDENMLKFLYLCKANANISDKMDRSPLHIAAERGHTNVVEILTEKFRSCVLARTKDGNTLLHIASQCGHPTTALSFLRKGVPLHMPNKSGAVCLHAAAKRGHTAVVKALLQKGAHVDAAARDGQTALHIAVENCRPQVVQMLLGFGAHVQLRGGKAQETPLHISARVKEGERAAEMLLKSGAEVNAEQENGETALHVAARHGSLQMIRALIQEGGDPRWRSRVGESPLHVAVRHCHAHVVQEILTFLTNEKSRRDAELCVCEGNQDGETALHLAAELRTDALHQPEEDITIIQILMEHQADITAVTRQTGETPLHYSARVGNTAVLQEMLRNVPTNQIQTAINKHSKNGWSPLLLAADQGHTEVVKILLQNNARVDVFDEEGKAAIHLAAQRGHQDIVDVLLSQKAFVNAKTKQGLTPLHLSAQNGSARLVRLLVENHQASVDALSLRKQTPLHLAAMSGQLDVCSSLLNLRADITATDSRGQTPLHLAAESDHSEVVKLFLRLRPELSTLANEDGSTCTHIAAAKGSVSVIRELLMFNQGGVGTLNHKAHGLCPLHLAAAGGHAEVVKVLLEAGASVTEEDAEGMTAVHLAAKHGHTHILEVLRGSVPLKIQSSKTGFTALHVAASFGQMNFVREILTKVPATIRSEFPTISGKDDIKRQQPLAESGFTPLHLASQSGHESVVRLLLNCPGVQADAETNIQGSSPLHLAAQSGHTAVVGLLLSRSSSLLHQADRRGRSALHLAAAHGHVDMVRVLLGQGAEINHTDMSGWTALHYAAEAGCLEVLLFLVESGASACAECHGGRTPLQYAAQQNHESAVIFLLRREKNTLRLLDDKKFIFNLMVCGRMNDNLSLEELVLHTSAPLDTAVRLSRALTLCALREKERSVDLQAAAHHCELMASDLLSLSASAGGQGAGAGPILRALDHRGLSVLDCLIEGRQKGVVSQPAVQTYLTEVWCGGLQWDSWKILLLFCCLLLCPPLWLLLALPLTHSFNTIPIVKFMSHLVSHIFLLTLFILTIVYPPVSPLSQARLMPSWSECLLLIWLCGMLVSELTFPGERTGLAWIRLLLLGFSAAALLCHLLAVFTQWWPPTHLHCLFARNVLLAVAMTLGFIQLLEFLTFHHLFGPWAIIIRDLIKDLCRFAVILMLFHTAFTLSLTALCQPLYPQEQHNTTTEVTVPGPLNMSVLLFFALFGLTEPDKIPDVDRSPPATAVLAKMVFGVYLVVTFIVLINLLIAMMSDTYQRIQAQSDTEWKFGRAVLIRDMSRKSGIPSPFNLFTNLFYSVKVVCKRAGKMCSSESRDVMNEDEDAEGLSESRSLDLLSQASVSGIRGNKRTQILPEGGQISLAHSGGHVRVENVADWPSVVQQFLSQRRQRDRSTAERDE

Sequence of Sphingosine 1-phosphate receptor 3 (Q99500 whole entry): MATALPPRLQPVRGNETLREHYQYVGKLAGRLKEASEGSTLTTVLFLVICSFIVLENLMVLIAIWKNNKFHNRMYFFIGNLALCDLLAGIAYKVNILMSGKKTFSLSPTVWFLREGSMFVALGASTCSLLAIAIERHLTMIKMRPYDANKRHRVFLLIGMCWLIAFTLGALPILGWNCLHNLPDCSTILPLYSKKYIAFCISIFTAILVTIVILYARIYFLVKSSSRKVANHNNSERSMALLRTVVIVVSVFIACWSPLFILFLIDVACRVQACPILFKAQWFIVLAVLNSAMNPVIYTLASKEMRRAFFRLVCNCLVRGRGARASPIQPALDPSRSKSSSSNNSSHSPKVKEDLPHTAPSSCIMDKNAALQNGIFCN
Sequence of Potassium voltage-gated channel subfamily KQT member 2 (O88943 whole entry W236L): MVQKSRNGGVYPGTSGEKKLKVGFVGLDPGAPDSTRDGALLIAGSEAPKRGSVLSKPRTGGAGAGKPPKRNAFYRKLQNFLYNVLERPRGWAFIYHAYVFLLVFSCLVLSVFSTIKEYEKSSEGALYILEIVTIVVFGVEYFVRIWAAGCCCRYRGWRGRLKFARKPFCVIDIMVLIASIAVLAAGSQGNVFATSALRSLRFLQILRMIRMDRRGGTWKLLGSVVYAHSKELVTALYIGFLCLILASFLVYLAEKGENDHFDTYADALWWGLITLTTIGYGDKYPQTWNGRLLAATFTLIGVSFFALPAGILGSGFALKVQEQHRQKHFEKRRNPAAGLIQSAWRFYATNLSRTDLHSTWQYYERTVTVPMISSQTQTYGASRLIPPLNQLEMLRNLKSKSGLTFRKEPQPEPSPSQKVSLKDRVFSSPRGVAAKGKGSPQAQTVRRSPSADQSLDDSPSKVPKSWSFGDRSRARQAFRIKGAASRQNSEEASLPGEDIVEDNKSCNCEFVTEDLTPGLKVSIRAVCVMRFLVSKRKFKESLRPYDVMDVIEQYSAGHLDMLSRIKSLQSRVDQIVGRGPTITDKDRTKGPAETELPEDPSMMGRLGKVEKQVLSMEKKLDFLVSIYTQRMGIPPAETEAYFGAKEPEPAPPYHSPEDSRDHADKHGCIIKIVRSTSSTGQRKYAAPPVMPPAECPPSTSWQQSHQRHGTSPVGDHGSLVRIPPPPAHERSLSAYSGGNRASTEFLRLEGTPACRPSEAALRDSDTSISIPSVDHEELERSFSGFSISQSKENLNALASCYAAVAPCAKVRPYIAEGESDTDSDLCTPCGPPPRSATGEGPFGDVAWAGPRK
Sequence of Bcl-2-like protein 10 (Q9HD36 whole entry): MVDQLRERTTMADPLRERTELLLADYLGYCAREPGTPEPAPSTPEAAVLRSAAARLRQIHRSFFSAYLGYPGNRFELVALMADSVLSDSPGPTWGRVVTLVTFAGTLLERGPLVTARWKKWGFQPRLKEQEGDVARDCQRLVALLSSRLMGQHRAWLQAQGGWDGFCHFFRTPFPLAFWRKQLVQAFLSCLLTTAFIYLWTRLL
Sequence of Mucolipin-3 (Q8TDD5 whole entry): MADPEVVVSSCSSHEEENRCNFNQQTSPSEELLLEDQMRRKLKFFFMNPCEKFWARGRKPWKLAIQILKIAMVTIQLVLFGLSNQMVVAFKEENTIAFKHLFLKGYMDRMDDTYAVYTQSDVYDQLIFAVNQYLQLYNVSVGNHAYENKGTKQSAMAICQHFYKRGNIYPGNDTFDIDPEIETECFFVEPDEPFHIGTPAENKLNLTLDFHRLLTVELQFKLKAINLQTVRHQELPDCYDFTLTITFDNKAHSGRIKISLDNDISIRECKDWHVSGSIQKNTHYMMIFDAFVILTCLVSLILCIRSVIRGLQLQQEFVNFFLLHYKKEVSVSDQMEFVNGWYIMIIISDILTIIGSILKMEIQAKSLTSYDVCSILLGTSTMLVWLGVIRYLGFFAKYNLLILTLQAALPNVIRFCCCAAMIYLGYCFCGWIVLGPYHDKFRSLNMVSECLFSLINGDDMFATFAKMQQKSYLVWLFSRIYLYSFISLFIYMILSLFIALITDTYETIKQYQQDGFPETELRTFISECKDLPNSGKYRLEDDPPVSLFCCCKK
Sequence of Induced myeloid leukemia cell differentiation protein Mcl-1 (Q07820 whole entry, the tested form may be a part): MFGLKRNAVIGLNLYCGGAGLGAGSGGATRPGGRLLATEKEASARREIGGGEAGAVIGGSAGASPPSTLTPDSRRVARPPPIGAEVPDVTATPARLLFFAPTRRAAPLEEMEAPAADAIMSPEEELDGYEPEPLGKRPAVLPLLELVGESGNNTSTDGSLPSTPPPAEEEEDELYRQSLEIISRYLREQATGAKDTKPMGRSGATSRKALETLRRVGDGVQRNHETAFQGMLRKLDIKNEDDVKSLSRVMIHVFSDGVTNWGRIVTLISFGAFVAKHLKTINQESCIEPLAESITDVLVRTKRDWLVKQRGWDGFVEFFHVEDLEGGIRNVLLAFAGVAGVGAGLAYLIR
Sequence of 5-hydroxytryptamine receptor 1E (P28566 whole entry): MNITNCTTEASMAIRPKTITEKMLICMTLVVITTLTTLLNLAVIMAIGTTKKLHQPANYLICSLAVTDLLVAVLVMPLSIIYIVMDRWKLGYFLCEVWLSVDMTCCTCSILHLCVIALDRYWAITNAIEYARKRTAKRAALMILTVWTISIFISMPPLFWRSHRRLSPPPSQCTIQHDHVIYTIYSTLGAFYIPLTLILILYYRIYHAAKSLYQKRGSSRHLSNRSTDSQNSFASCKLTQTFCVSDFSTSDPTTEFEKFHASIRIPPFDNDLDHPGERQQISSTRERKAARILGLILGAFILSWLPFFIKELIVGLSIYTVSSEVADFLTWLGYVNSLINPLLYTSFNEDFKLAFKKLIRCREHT
Sequence of Estrogen receptor beta (Q92731 whole entry): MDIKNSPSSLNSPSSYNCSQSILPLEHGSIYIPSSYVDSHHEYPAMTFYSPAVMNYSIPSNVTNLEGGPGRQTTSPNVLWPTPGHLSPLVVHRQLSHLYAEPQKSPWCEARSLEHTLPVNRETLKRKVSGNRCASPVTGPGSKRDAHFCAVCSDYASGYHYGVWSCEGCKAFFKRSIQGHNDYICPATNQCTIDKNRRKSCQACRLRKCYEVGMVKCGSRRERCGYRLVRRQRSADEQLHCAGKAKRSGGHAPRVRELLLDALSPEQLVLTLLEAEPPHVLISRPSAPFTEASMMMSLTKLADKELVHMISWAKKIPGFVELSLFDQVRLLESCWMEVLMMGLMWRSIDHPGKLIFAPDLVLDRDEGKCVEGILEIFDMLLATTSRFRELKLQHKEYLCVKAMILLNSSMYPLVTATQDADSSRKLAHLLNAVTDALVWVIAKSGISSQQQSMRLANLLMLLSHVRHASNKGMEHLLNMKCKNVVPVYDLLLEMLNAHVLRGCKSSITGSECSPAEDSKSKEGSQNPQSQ

O=[N+]([O-])c1cc(C(F)(F)F)cc([N+](=O)[O-])c1NCCNC(=S)Nc1ccc(Cl)c(Cl)c1
EC50 [1]: 6 µM (active)
AC50 [2]: 4.92 µM (active)
EC50 (Protein RecA): 303 µM (active)
EC50 [3]: 8.24 µM (active)
EC50 (Streptokinase A): 7.06 µM (inconclusive)
EC50 [4]: 8.69 µM (active)
EC50 [5]: 11.2 µM (not active)
IC50 [6]: 7.03 µM (active)

Cc1nc2ccccn2c1C(=O)N/N=C/c1ccc([N+](=O)[O-])o1
EC50 [7]: 0.139 µM (active)
IC50 (Bcl-2-like protein 1): 55.2 µM (not active)
IC50 [8]: 13.2 µM (not active)
IC50 [9]: 5.79 µM (active)
EC50 [10]: > 160 µM (inactive)
EC50 [11]: 10.9 µM (active)
AC50 [12]: 8.03 µM (active)

O=C(Nc1ccc2ccccc2c1)C(c1ccccc1)C1CCCC1 (centres undefined)
EC50 [7]: 2.42 µM (active)
IC50 [13]: 1.85 µM (active)
EC50 [11]: > 30 µM (not active)
IC50 [14]: 2.1 µM (active)

O=C(c1cnccn1)N1CCc2ccccc21
IC50 (Bcl-2-like protein 10): 23.7 µM (active)
IC50 (Estrogen receptor beta): < 0.023 µM (not active)

CC1=C(C(=O)OC2CCCCCCC2)C(c2cccc(O)c2)NC(=O)N1 (centres undefined)
EC50 [15]: 537 µM (active)

Cc1onc(-c2ccc(Cl)cc2)c1-c1ccnn1S(=O)(=O)c1cccc(C(F)(F)F)c1
EC50 (Mucolipin-3): 4.26 µM (active)
EC50 (Ion channel NompC): > 29.9 µM (not active)
